# Laboratory results taken from patent US11230593B2, “Compositions and methods for treating and preventing influenza” (VISTERRA, INC., priority 2019, dated 2022).
# Where two headings read alike, the source gives them in different places.
# Tests used:
# Type in all cases: cell-based, Influenza A
# [1] = system: Hawaii/31/2007 H275Y (H1N1)
# WSN/33 H274Y (H1N1) = system: WSN/33 H274Y (H1N1)
# [2] = system: Pennsylvania/30/2009 H275Y, I223R (H1N1)
# [3] = system: Mississippi/3/2001 H275Y (H1N1)
# [4] = system: Hong Kong/2369/2009 H275Y (H1N1)
# [5] = system: Victoria/3/75-Os-R (H3N2); assay: microbe, parasite or virus in culture
molecule,measurement,setting,value
"NC(=O)c1ncn([C@@H]2O[C@H](CO)[C@@H](O)[C@H]2O)n1 [Ribavirin, ribavirin]",EC50,[1],7.2 µg/mL
same,EC50,WSN/33 H274Y (H1N1),3.7 µg/mL
same,EC50,[2],5.2 µg/mL
same,EC50,[3],18 µg/mL
same,EC50,[4],28 µg/mL
same,EC50,"[5]; Influenza A virus, H3N2, MDCK",5.4 µg/mL
Oseltamivir acid [Oseltamivir (OSE)],EC50,[1],>21 µg/mL
same,SI,[1],<2.4
same,EC50,WSN/33 H274Y (H1N1),28 µg/mL
same,SI,WSN/33 H274Y (H1N1),>1.8
same,EC50,[2],>50 µg/mL
same,SI,[2],0
same,EC50,[3],>50 µg/mL
same,SI,[3],0
same,SI,[4],<6.4
same,EC50,[5],>50 µg/mL
same,SI,[5],0
